Data on one compound can be found in patent US9120776B2, “Condensed heterocyclic compound” (Takeda Pharmaceutical Company Limited, priority 2011, dated 2015).

In one experiment the test system is human PBMC. Description: IL17 Production Test in Human PBMC. Conditions: 72 h, inhibitory rate at 10 μM of test compound, anti-CD3/CD28 stimulation, 3 days, IL-17A by ELISA. It counts as cell-based. On the procedure:
Peripheral blood mononuclear cells (PBMC) collected from human peripheral blood by a density gradient centrifugation method were stimulated by Dynabeads (registered trade mark; anti-CD3/CD28 antibody) and cultured at 37° C. for 3 days. The compound was dissolved in DMSO and then added thereto. After culture for 3 days under such conditions, the concentration of IL-17A in the culture supernatant obtained by centrifugation was measured by ELISA to evaluate the effect of the compound on IL-17 production.
(An ELISA detects its analyte on a solid surface through an enzyme-linked reagent.)

Experiment [1] deals with Th17 cells. Put plainly: Human Th17 Cell Differentiation Test (IL-17A in culture supernatant, ELISA). It counts as cell-based. Conditions: 144 h; inhibitory rate at 10 μM of test compound; human CD4 positive naive T cells, 6 days, IL-17A by ELISA. On the procedure:
CD4 positive naive T cells were isolated from peripheral blood mononuclear cells (PBMC) collected from human peripheral blood by a density gradient centrifugation method. The CD4 positive naive T cells were seeded in a 96 well plate (2×10^4 cells/well), and stimulated (37° C. for culture) with anti-CD 3/28Ab Dynabeads (Invitrogen) for 6 days in the presence of IL-1β, IL-6, IL-23, TGFβ, anti-IFNγ Ab (BioLegend) and anti-IL-4 Ab (BioLegend) to differentiate into Th17 cells. The compound was dissolved in DMSO and then added thereto. After culture for 6 days, the concentration of IL-17A in the culture supernatant obtained by centrifugation was measured by ELISA to evaluate differentiation of the Th17 cells.

In experiment [2] the test system is IL-17A gene expression. Put plainly: IL-17A gene expression induced by anti-CD3 antibody stimulation in mouse colon. It counts as in vivo. Conditions: po, Balb/c mice. On the procedure:
(§1) An anti-CD3 antibody (5 μg/500 μL/mouse, BioXcell) or saline (500 μL/mouse) was intraperitoneally administered to Balb/c mice (female, 8 weeks old). Three hours after the administration, the mice were anesthetized by ether inhalation, and euthanized by cervical spine fracture dislocation. Then, the mice underwent laparotomy, and colons were isolated. The obtained colons were washed with saline, and then, immersed in RNA stabilization buffer (RNAlater, QIAGEN) at 4° C. for 18 hours or longer. Meanwhile, a suspension of a compound in 0.5% methylcellulose was orally administered an hour before administration of anti-CD3 antibody.
The colon tissues were retrieved from RNAlater, and immediately immersed in 5 mL of RLT buffer (RNeasy Mini Kit, QIAGEN). Then, the tissues were homogenized at room temperature. Total RNA was extracted from the homogenized solution in accordance with the protocol of RNeasy Mini Kit (QIAGEN), and cDNA was prepared using high capacity RNA-to-cDNA Kit (Applied biosystems). mRNAs of various cytokines were detected by realtime-PCR (TaqMan PCR) using the obtained cDNA as a template. TaqMan universal master mixII (Applied biosystems) was used as PCR buffer, and TaqMan Gene Expression Assays (Applied biosystems): Mm00439619_m1 (IL-17A), Mm00801778 m1 (IFN-γ) and 43252341E (β-actin) were used for detection of each cytokine gene, respectively. The expression levels of each gene were shown as normalized values calculated using β-actin expression level.
All the data were shown as mean values±SE. Statistical analyses were performed by Student's t test and William's test.

Experiment [3] deals with IL-17A gene expression. Put plainly: IL-17A gene expression in lymph node of EAE rat model. It counts as in vivo. The note with it: 30, 100 and 300 mg/kg, po twice a day; EAE-sensitized Lewis rat, 5th day. On the procedure:
A killed Mycobacterium tuberculosis, H37Ra (DIFCO), was suspended at the concentration of 2 mg/mL in Freund Incomplete adjuvant (DIFCO), and 5 mg of MBP (Sigma) was dissolved in 1.25 mL of saline (Otsuka). These two solutions were mixed at the ratio of 1:1 using glass syringe with a three-way stopcock until emulsion was obtained. The emulsion was intracutaneously administered to the bottom of the right foot of Lewis rats (male, 7 weeks old) at 0.1 mL/rat.
A suspension of the compound of Example 14 in 0.5% methylcellulose was orally administered twice a day from the day of sensitization at the dose of 30, 100 or 300 mg/kg. The last administration was performed on the 5th day after sensitization, and an autopsy was performed 4 hours after the last administration.
The autopsy was performed on the 5th day after the sensitization, and popliteal lymph nodes of the right leg were collected. […] The synthesized cDNA was detected by PCR reaction using Taqman Gene Expression Master Mix (Applied Biosystems) and 7900HT Fast realtime PCR system (Applied Biosystems) (Stage 1: 50° C., 2 min, Stage 2: 95° C., 10 min, Stage 3: 95° C., 15 sec, 60° C., 1 min, 40 cycle). […]

For experiment [4], the system named is Th17 cells. Put plainly: Mouse Th17 Cell Differentiation Test (IL-17A in culture supernatant, ELISA). It counts as cell-based. Conditions: inhibitory rate at 10 μM of test compound; mouse CD4 positive naive T cells, 4 days, IL-17A by ELISA; 10 µM. On the procedure:
CD4 positive naive T cells were collected from the spleen cells of BALB/c mice (female, 8-11w, Charles River Laboratories Japan, Inc.) using CD4+CD62L+ T Cell Isolation kit II (Miltenyi Biotec). The CD4 positive naive T cells in a 96 well plate (3×10^5 cells/well) were stimulated (37° C. for culture) with anti-mouse CD3ε antibody (Bio X cell) (10 μg/mL, solid phase) and anti-CD28 antibody (Bio X cell) (5 μg/mL) for 4 days in the presence of anti-IFN-γ antibody (BioLegend), anti-IL-4 antibody (BioLegend), anti-IL-2 antibody (BioLegend), IL-6, TGF-β and IL-23 to differentiate into Th17 cells. The compound was dissolved in DMSO and then added thereto. The cells were cultured under these conditions for 4 days, and differentiation of the Th17 cells was evaluated by using the concentration of IL-17A, which was measured by ELISA, in the culture supernatant obtained by centrifugation.

The test system of another experiment is IFN-γ gene expression. Description: IFN-γ gene expression induced by anti-CD3 antibody stimulation in mouse colon. It counts as in vivo. Conditions: 30, 100 and 300 mg/kg, po, Balb/c mice. On the procedure: as §1
The colon tissues were retrieved from RNAlater, and immediately immersed in 5 mL of RLT buffer (RNeasy Mini Kit, QIAGEN). Then, the tissues were homogenized at room temperature. Total RNA was extracted from the homogenized solution in accordance with the protocol of RNeasy Mini Kit (QIAGEN), and cDNA was prepared using high capacity RNA-to-cDNA Kit (Applied biosystems). mRNAs of various cytokines were detected by realtime-PCR (TaqMan PCR) using the obtained cDNA as a template. […] The expression levels of each gene were shown as normalized values calculated using β-actin expression level. […]

A word on the inhibition: it is the relative decrease from the control value, in per cent. A higher inhibition goes with strong suppression. With `CCn1c2ccccc2c2cc(NC(=O)CC(C)CC(=O)Nc3ccc(C#N)c(Cl)c3)ccc21` (centres unmarked) [Example 14, N-(3-chloro-4-cyanophenyl)-N′-(9-ethyl-9H-carbazol-3-yl)-3-methylpentanediamide], the figures for the inhibition at 10 µM in the experiment on human PBMC and in the experiment with Th17 cells [1] were 95% and 99.3%, respectively. Moreover, the “inhibition rate of IL-17A expression” value in the experiment on IL-17A gene expression [2] (30 mg/kg) was found to be 10%; in the experiment on IL-17A gene expression [2] (100 mg/kg), 25%; with IL-17A gene expression [2] (300 mg/kg), 53%. The “effect on increase in IL-17A gene expression in lymph node” value in the experiment on IL-17A gene expression [3] is recorded as “tended to suppress the increase in IL-17A gene expression”. The “inhibitory rate (%)” value in the experiment with Th17 cells [4] is 96.0%. Further, the “effect on IFN-γ expression” value in the experiment with IFN-γ gene expression is listed as “did not affect IFN-γ expression”.
